According to patent publication US20250074911A1, “MACROCYCLIC BTK INHIBITORS” (Crossfire Oncology Holding B.V., priority 2021, published 2025):
pKd: −log10 of the molar value.

How the values were obtained:
[1] = molecular target: wt-BTK (Homo sapiens (Human), UniProt Q06187); assay: Binding kinetics measurements (Surface Plasmon Resonance) on wt-BTK; conditions: for pKd: binding affinity by Surface Plasmon Resonance (SPR); for Tau (h) wt-BTK (Act): target residence time, SPR
Method in brief: (§1)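 SPR, single cycle kinetics: 5 injections, 3.16-316 nM, 30 μl/min (avoids mass transport limitation), 22° C, 1% DMSO buffer. Protein immobilized at 4° C on streptavidin chip, biocytin block. Blank run first; reference channel and buffer curves subtracted.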

[2] = molecular target: BTK T316A (Homo sapiens (Human), UniProt Q06187, T316A); assay: Binding kinetics measurements (Surface Plasmon Resonance) on BTK T316A; conditions: for pKd: binding affinity by Surface Plasmon Resonance (SPR); for Tau (h) BTK T316A (Act): target residence time, SPR
Chain of BTK T316A (Q06187 whole entry T316A): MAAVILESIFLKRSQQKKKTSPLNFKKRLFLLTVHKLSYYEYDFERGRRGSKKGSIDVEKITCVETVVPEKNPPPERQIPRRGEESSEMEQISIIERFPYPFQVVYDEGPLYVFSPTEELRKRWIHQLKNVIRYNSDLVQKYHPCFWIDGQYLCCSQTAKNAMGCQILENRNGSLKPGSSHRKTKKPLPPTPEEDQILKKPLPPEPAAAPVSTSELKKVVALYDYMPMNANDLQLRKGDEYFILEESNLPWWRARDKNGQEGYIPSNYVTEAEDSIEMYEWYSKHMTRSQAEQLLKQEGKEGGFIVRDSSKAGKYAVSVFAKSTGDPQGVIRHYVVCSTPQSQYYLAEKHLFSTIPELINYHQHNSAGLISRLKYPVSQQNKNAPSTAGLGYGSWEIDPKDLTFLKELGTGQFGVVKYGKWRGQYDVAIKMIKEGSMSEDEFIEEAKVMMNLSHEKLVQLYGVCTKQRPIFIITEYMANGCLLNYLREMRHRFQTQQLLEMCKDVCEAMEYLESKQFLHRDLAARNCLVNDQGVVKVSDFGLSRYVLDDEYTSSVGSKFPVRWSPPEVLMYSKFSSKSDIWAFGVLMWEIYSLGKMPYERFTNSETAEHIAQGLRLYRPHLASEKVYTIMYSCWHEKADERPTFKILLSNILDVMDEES
Method in brief: as §1

[3] = molecular target: BTK T474S (Homo sapiens (Human), UniProt Q06187, T474S); assay: Binding kinetics measurements (Surface Plasmon Resonance) on BTK T474S; conditions: for residence time: SPR binding kinetics, BTK T474S, read-out: Tau (h) BTK T474S (Act), target residence time (converted); for pKd: binding affinity by Surface Plasmon Resonance (SPR)
Chain of BTK T474S (Q06187 whole entry T474S): as the sequence (Q06187 whole entry T316A) above, with A316T, T474S counted along it
Method in brief: as §1

Chain of wt-BTK (Q06187 whole entry): as the sequence (Q06187 whole entry T316A) above, with A316T counted along it

Structure (SMILES)	pKd [1]	Tau (h) wt-BTK (Act) [1]	pKd [2]	Tau (h) BTK T316A (Act) [2]	residence time [3]	pKd [3]
Nc1ncc2c3c1c(-c1ccc(C(=O)Nc4cc(C(F)(F)F)ccn4)cc1)nn3[C@@H]1CCC[C@H](C1)NC(=O)CCOC/C=C/2 [Example 25]	> 8.30	9.45 h	> 8.30	3.55 h	2.64 h	> 8.52
C[C@@H]1CC(=O)N[C@@H]2CCC[C@H](C2)n2nc(-c3ccc(C(=O)Nc4cc(C(F)(F)F)ccn4)cc3)c3c(N)ncc(c32)/C=C/CCN1 [Example 45]	> 8.30	4.42 h	> 8.30	6.06 h	2.94 h	> 8.52
N#Cc1ccnc(NC(=O)c2ccc(-c3nc4n5c(cnc(N)c35)/C=C/CCCCCC(=O)N[C@@H]3CCC[C@@H]4C3)cc2)c1 [Example 184]	–	5.55 h	–	–	–	–

The remaining lines, values ahead:

pKd [1]	Tau (h) wt-BTK (Act) [1]	pKd [2]	Tau (h) BTK T316A (Act) [2]	residence time [3]	pKd [3]	Structure (SMILES)
–	10.14 h	–	–	–	–	N#Cc1ccnc(NC(=O)c2ccc(-c3nc4n5c(cnc(N)c35)/C=C/CCOCCC(=O)N[C@@H]3CC[C@@H]4C3)cc2)c1 [Example 201]
–	5.64 h	–	–	–	–	N#Cc1ccnc(NC(=O)c2ccc(-c3nc4n5c(cnc(N)c35)/C=C/CCCCCC(=O)N[C@@H]3CC[C@@H]4C3)cc2)c1 [Example 204]
